Laboratory results taken from US20220162561A1, “COMPOSITION FOR PROMOTING SECRETION OF EXTRACELLULAR VESICLES” (priority 2019, published 2022).

What was measured:
Assay type in all cases: cell-based
[1] = test system: mesenchymal stem cells derived from human umbilical cord matrix; assay: Test Example 8: cytotoxicity, LDH activity in culture solution
Procedure: (§1) Mesenchymal stem cells derived from human bone marrow or mesenchymal stem cells derived from human umbilical cord matrix (#C-12974, #C-12971 manufactured by Takara Bio Inc.) were suspended in mesenchymal stem cell growth medium 2 (C-28009 manufactured by Takara Bio Inc.) so as to be 8×10^4 cells/1.8 mL, and seeded on a 6-well cell culture treatment plate (3516 manufactured by Corning Inc.). To the seeded mesenchymal stem cells was added each 200 μL of the compounds of Examples 1 to 8 diluted to 10-fold concentration with the mesenchymal stem cell growth medium 2, and after culturing for 24 hours, the culture solution was recovered. The activity of lactate dehydrogenase (LDH) contained in the recovered culture solution was measured by using LDH Cytotoxicity Detection Kit (MK401 manufactured by Takara Bio Inc.). To a freeze-dried product of Solution A was added 1 mL of purified water to completely dissolve therein, then, 250 μL of Solution A and 11.25 mL of Solution B were mixed to prepare Solution C. To 100 μL of the recovered culture solution was added 100 μL of Solution C, and the mixture was reacted at room temperature for 30 minutes. Absorbance at 490 nm was measured using Enspire (manufactured by PerkinElmer). Based on the obtained measured values, a relative value when the compound untreated group (control) was set to 1 was calculated.

[2] = test system: mesenchymal stem cells derived from human bone marrow; assay: as above
Procedure: as §1

[3] = test system: mesenchymal stem cells derived from human umbilical cord matrix; assay: Test Example 9: cell proliferation activity (cell viability), CellTiter-Glo
Procedure: (§2) Mesenchymal stem cells derived from human bone marrow or mesenchymal stem cells derived from human umbilical cord matrix (#C-12974, #C-12971 manufactured by Takara Bio Inc.) were suspended in mesenchymal stem cell growth medium 2 (C-28009 manufactured by Takara Bio Inc.) so as to be 2×10^3 cells/90 μL, and seeded on a 96-well cell culture treatment plate (3585 manufactured by Corning Inc.). To the seeded mesenchymal stem cells was added each 10 μL of the compounds of Examples 1 to 8 diluted to 10-fold concentration with the mesenchymal stem cell growth medium 2, and the cells were cultured for 24 hours. Next, according to the following method, the number of living cells was measured using CellTiter-Glo (Registered Trademark) Luminescent Cell Viability Assay (G7570 manufactured by Promega).
(§3) CellTiter-Glo (Registered Trademark) Substrate was dissolved in CellTiter-Glo (Registered Trademark) Buffer. The prepared solution was added to each well with 100 μL/well, then, 100 μL thereof was apportioned to a 96-well cell culture treatment white plate (356701 manufactured by Corning Inc.), and luminescence was measured with Enspire (manufactured by PerkinElmer). A relative value when the compound untreated group (control) was set to 1 was calculated.

[4] = test system: mesenchymal stem cells derived from human bone marrow; assay: as above
Procedure: as §2, §3

[5] = test system: mesenchymal stem cells derived from human adipose tissue; assay: Test Example 5: cell proliferation activity (cell viability), CellTiter-Glo; parameters: scale not given here
Procedure: Mesenchymal stem cells derived from the human adipose tissue (#C-12977 manufactured by Takara Bio Inc.) were suspended in mesenchymal stem cell growth medium 2 (C-28009 manufactured by Takara Bio Inc.) so as to be 2×10^3 cells/90 μL, and seeded on a 96-well cell culture treatment plate (3585 manufactured by Corning Inc.). To the seeded mesenchymal stem cells derived from human adipose tissue was added 10 μL of the compound solution of each of Examples 1 to 8 diluted to 10-fold concentration with the mesenchymal stem cell growth medium 2, or mesenchymal stem cell growth medium alone (control), and the cells were cultured for 24 hours. Subsequently, the number of living cells was measured as follows using CellTiter-Glo (Registered Trademark) Luminescent Cell Viability Assay (G7570 manufactured by Promega). 100 μL well of a solution in which CellTiter-Glo (trademark) Substrate was dissolved in CellTiter-Glo (trademark) Buffer was added to each well of the above-mentioned 96-well cell culture treatment plate, and then, 100 μL thereof was transferred to 96-well cell culture treatment white plate (356701 manufactured by Corning Inc.), and the luminescence was measured with Enspire (manufactured by PerkinElmer).

[6] = test system: mesenchymal stem cells derived from human adipose tissue; assay: Test Example 4: cytotoxicity, LDH activity in culture solution
Procedure: Mesenchymal stem cells derived from the human adipose tissue (#C-12977 manufactured by Takara Bio Inc.) were suspended in mesenchymal stem cell growth medium 2 (C-28009 manufactured by Takara Bio Inc.) so as to be 8×10^4 cells/1.8 mL, and seeded on a 6-well cell culture treatment plate (3516 manufactured by Corning Inc.). To the seeded mesenchymal stem cells derived from human adipose tissue was added 200 μL of the compound solution of each of Examples 1 to 8 diluted to 10-fold concentration with the mesenchymal stem cell growth medium 2, or mesenchymal stem cell growth medium alone (control), and after culturing for 24 hours, the culture solution was recovered. The activity of lactate dehydrogenase (LDH) contained in the recovered culture solution was measured by using LDH Cytotoxicity Detection Kit (MK401 manufactured by Takara Bio Inc.) as follows. To a freeze-dried product of Solution A was added 1 mL of purified water to completely dissolve therein, then, 250 μL of Solution A and 11.25 mL of Solution B were mixed to prepare Solution C. To 100 μL of the recovered culture solution was added 100 μL of Solution C, and the mixture was reacted at room temperature for 30 minutes. Absorbance at 490 nm was measured using Enspire (manufactured by PerkinElmer).

[7] = 2 μM, 24 hours, LDH, 490 nm, control set to 1
[8] = 2 μM, 24 hours, CellTiter-Glo, control set to 1
[9] = Table 6, 2 μM, 24 hours, number of living cells, CellTiter-Glo
[10] = Table 4, 2 μM, 24 hours, LDH, absorbance at 490 nm
[11] = 20 nM, 24 hours, LDH, 490 nm, control set to 1
[12] = 20 nM, 24 hours, CellTiter-Glo, control set to 1
[13] = Table 6, 50 nM, 24 hours, number of living cells, CellTiter-Glo
[14] = Table 4, 50 nM, 24 hours, LDH, absorbance at 490 nm

Structure (SMILES)	Relative value of absorbance [1, 7]	Relative value of absorbance [2, 7]	Relative value of luminescence [3, 8]	Relative value of luminescence [4, 8]	Luminescence [5, 9]	Absorbance [6, 10]	Relative value of absorbance [1, 11]	Relative value of absorbance [2, 11]	Relative value of luminescence [3, 12]	Relative value of luminescence [4, 12]	also measured
CC(=O)O.Cc1cc2c(C(C)C)c(O)c(O)c(C=O)c2c(O)c1-c1c(C)cc2c(C(C)C)c(O)c(O)c(C=O)c2c1O (racemic) [Example 1, (±)-Gossypol Acetate]	0.78	0.93	0.97	0.91	0.96	0.73	–	–	–	–	Luminescence ([5]; Table 5, 2 μM, 24 hours, number of living cells, CellTiter-Glo): 0.87; Absorbance ([6]; Table 3, 2 μM, 24 hours, LDH, absorbance at 490 nm): 1.08
CC(=O)O.Cc1cc2c(C(C)C)c(O)c(O)c(C=O)c2c(O)c1-c1c(C)cc2c(C(C)C)c(O)c(O)c(C=O)c2c1O [Example 2, (S)-Gossypol Acetate]	1.04	0.99	0.97	0.96	1.00	1.02	–	–	–	–	–
Cc1cc2c(C(C)C)c(O)c(O)cc2c(O)c1-c1c(C)cc2c(C(C)C)c(O)c(O)cc2c1O [Example 3, (+)-Apogossypol]	–	–	–	–	–	–	–	–	–	–	Relative value of absorbance ([1]; human, 24 h, 2 μM): 1.06; Relative value of absorbance ([2]; human, 24 h, 2 μM): 0.99; Relative value of luminescence ([3]; human, 24 h, 2 μM): 1.01; Relative value of luminescence ([4]; human, 24 h, 2 μM): 1.00; Luminescence ([5]; human, 24 h, 2 μM): 0.82; Absorbance ([6]; human, 24 h, 2 μM): 1.02
Cc1cc2c(C(C)C)c(O)c(O)c(C=O)c2c(O)c1-c1c(C)cc2c(C(C)C)c(O)c(O)c(C=O)c2c1O [Example 4, (R)-(−)-Gossypol]	0.88	0.97	–	–	–	1.20	–	–	–	–	Relative value of luminescence ([3]; human, 24 h, 2 μM): 0.92; Relative value of luminescence ([4]; human, 24 h, 2 μM): 0.86; Luminescence ([5]; human, 24 h, 2 μM): 0.85
COC1=CC(c2cc3ccccc3[nH]2)=N/C1=C\c1[nH]c(C)cc1C.CS(=O)(=O)O [Example 5, Obatoclax Mesylate]	–	–	–	–	–	–	0.94	0.96	0.84	0.96	Luminescence ([5]; Table 5, 50 nM, 24 hours, number of living cells, CellTiter-Glo): 0.75; Absorbance ([6]; Table 3, 50 nM, 24 hours, LDH, absorbance at 490 nm): 1.14
CCCCCC1=C/C(=C\c2[nH]c(-c3ccc[nH]3)cc2OC)N=C1C.Cl [Example 6, Prodigiosin Hydrochloride]	–	–	–	–	–	–	0.97	0.93	0.78	0.92	Luminescence [5, 13]: 0.76; Absorbance [6, 14]: 1.02
CCCCCCCCCCCc1ccc(/C=C2\N=C(c3ccc[nH]3)C=C2OC)[nH]1.Cl [Example 7, Undecylprodigiosin Hydrochloride]	–	–	–	–	–	–	1.03	0.99	0.82	0.82	Luminescence [5, 13]: 0.74; Absorbance [6, 14]: 1.02
Cc1cc2c(C(=O)NC[C@H](C)c3ccccc3)c(O)c(O)cc2c(O)c1-c1c(C)cc2c(C(=O)NC[C@H](C)c3ccccc3)c(O)c(O)cc2c1O [Example 8, Sabutoclax]	1.15	1.01	1.00	0.93	0.95	1.18	–	–	–	–	–
